Reference: patent publication US20220402950A1, “SUBSTITUTED BENZIMIDAZOLES AS PAD4 INHIBITORS” (BRISTOL-MYERS SQUIBB COMPANY, priority 2018, published 2022)

Biological target: human PAD4 (hPAD4) (Homo sapiens, UniProt Q9UM07)
Assay: RFMS Human PAD4 Functional Assay
Type: biochemical
Settings: hPAD4 RFMS IC50, human PAD4, rapid-fire mass spectrum (RFMS) assay; 5 nM hPAD4, 250 μM BAEE
Procedure: RFMS Human PAD4 Functional Assay:
Compounds were solubilized in 100% DMSO to achieve a 10 mM compound concentration. Compound stock solutions were stored at RT. A series of dilutions were prepared in DMSO and mixed 8 times with 20 μL mixing volume. Final top concentration of compound in the assay is 50 μM.
0.13 μL of compound solution was added to 13 μL of 10 nM PAD4 in assay buffer. After 30 min 13 μl of 500 μM of BAEE was added in 25 mM hepes, pH 7.5, 5 mM NaCl, 1 mM DTT, 0.2 mg/ml BSA, 0.01% CHAPS, 50 μM Calcium, 5 μM TPEN was added and the reaction incubated for 90 min at 37° C. The enzymatic reaction was quenched by addition of 15 μl of 6.1N TCA, 100% Final Concentration is 20%, 35 μl of 8.5 mM phenyl glyoxal (final concentration 4 mM) is then added and the reaction is incubated for 30 min at 37° C.
After 30 minutes the plates are spun down to remove all precipitate. The enzyme reaction was quenched with an equal volume of methanol containing internal standard (modified citrulline). Samples were loaded onto the Rapid Fire RF300 system (Agilent) wherein they were first sipped for 1000 ms and then directly loaded to a C18 separations cartridge using a mixture of acetonitrile containing 0.01% formic acid for 3000 ms desalting. The flow rate of the mobile phase was 1.5 ml/min.
The dwell time for each transition was set at 200 ms, and the ESI voltage was used at 5500 with a source temperature of 400° C. Extracted ion peaks for each transition were integrated using the Rapid Fire Integrator software. Peak area of analyte was normalized with internal standard.).

Sequence of human PAD4 (hPAD4) (Q9UM07 whole entry): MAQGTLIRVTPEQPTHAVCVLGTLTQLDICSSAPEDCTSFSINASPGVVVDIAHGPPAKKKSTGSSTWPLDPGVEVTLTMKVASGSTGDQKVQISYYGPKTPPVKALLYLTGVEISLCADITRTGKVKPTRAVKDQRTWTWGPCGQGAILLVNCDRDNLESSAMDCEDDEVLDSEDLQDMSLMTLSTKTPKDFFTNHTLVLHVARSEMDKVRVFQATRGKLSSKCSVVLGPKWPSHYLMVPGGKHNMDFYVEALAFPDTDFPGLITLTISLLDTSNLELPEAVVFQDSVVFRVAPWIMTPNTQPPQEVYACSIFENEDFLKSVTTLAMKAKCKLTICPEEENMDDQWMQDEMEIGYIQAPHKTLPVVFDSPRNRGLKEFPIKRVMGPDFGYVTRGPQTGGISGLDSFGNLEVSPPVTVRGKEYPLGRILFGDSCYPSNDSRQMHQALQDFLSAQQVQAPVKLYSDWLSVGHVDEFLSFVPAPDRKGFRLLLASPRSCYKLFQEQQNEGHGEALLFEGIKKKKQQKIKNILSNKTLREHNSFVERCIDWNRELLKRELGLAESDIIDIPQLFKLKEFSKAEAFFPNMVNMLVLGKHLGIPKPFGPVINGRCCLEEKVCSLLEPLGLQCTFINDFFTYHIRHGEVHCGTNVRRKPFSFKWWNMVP

IC50	Structure (SMILES)
56 nM	COc1cc(C(=O)N2C[C@H]3CC[C@@H]2[C@@H]3N)cc2nc(-c3cc4cccc(CCCCCCN)c4n3CC3CC3)n(C)c12 [Example 17, (1R,4R,7R)-2-{2-[7-(6-aminohexyl)-1-(cyclopropylmethyl)-1H-indol-2-yl]-7-methoxy-1-methyl-1H-1,3-benzodiazole-5-carbonyl}-2-azabicyclo[2.2.1]heptan-7-amine]
90 nM	COc1cc(C(=O)N2C[C@H]3CC[C@@H]2[C@@H]3N)cc2nc(-c3cc4cccc(CCC#N)c4n3CC3CC3)n(C)c12 [Example 19, 3-(2-{5-[(1R,4R,7R)-7-amino-2-azabicyclo[2.2.1]heptane-2-carbonyl]-7-methoxy-1-methyl-1H-1,3-benzodiazol-2-yl}-1-(cyclopropylmethyl)-1H-indol-7-yl)propanenitrile]
47 nM	COc1cc(C(=O)N2C[C@H]3CC[C@@H]2[C@@H]3N)cc2nc(-c3cc4cccc(CCC(N)=O)c4n3CC3CC3)n(C)c12 [Example 20, 3-(2-{5-[(1R,4R,7R)-7-amino-2-azabicyclo[2.2.1]heptane-2-carbonyl]-7-methoxy-1-methyl-1H-1,3-benzodiazol-2-yl}-1-(cyclopropylmethyl)-1H-indol-7-yl)propanamide]
86 nM	COc1cc(C(=O)N2C[C@H]3CC[C@@H]2[C@@H]3N)cc2nc(-c3cc4cccc(CCC(C)(C)O)c4n3CC3CC3)n(C)c12 [Example 21, 4-(2-{5-[(1R,4R,7R)-7-amino-2-azabicyclo[2.2.1]heptane-2-carbonyl]-7-methoxy-1-methyl-1H-1,3-benzodiazol-2-yl}-1-(cyclopropylmethyl)-1H-indol-7-yl)-2-methylbutan-2-ol]
42 nM	COc1cc(C(=O)N2C[C@H]3CC[C@@H]2[C@@H]3N)cc2nc(-c3cc4cccc(C5CN(C)C5)c4n3CC3CC3)n(C)c12 [Example 22, (1R,4R,7R)-2-{2-[1-(cyclopropylmethyl)-7-(1-methylazetidin-3-yl)-1H-indol-2-yl]-7-methoxy-1-methyl-1H-1,3-benzodiazole-5-carbonyl}-2-azabicyclo[2.2.1]heptan-7-amine]
120 nM	COc1cc(C(=O)N2C[C@H]3CC[C@@H]2[C@@H]3N)cc2nc(-c3cc4cccc(CCN5CCOC5=O)c4n3CC3CC3)n(C)c12 [Example 23, 3-[2-(2-{5-[(1R,4R,7R)-7-amino-2-azabicyclo[2.2.1]heptane-2-carbonyl]-7-methoxy-1-methyl-1H-1,3-benzodiazol-2-yl}-1-(cyclopropylmethyl)-1H-indol-7-yl)ethyl]-1,3-oxazolidin-2-one]
61 nM	COc1cc(C(=O)N2C[C@H]3CC[C@@H]2[C@@H]3N)cc2nc(-c3cc4cccc(C5CCC(O)CC5)c4n3CC3CC3)n(C)c12 (stereo partly drawn) [Example 24, 4-(2-{5-[(1R,4R,7R)-7-amino-2-azabicyclo[2.2.1]heptane-2-carbonyl]-7-methoxy-1-methyl-1H-1,3-benzodiazol-2-yl}-1-(cyclopropylmethyl)-1H-indol-7-yl)cyclohexan-1-ol]
63 nM	COc1cc(C(=O)N2C[C@H]3CC[C@@H]2[C@@H]3N)cc2nc(-c3cc4cccc(C5COC5)c4n3CC3CC3)n(C)c12 [Example 25, (1R,4R,7R)-2-{2-[1-(cyclopropylmethyl)-7-(oxetan-3-yl)-1H-indol-2-yl]-7-methoxy-1-methyl-1H-1,3-benzodiazole-5-carbonyl}-2-azabicyclo[2.2.1]heptan-7-amine]
41 nM	COc1cc(C(=O)N2C[C@H]3CC[C@@H]2[C@@H]3N)cc2nc(-c3cc4cccc(CC5CNC5)c4n3CC3CC3)n(C)c12 [Example 26, (1R,4R,7R)-2-(2-{7-[(azetidin-3-yl)methyl]-1-(cyclopropylmethyl)-1H-indol-2-yl}-7-methoxy-1-methyl-1H-1,3-benzodiazole-5-carbonyl)-2-azabicyclo[2.2.1]heptan-7-amine]
74 nM	COc1cc(C(=O)N2C[C@H]3CC[C@@H]2[C@@H]3N)cc2nc(-c3cc4cccc(CCCS(C)(=O)=O)c4n3CC3CC3)n(C)c12 [Example 27, (1R,4R,7R)-2-{2-[1-(cyclopropylmethyl)-7-(3-methanesulfonylpropyl)-1H-indol-2-yl]-7-methoxy-1-methyl-1H-1,3-benzodiazole-5-carbonyl}-2-azabicyclo[2.2.1]heptan-7-amine]
67 nM	COc1cc(C(=O)N2C[C@H]3CC[C@@H]2[C@@H]3N)cc2nc(-c3cc4cccc(C5CCN(C(=O)OCc6ccccc6)C5)c4n3CC3CC3)n(C)c12 (stereo partly drawn) [Example 28, benzyl 3-(2-{5-[(1R,4R,7R)-7-amino-2-azabicyclo[2.2.1]heptane-2-carbonyl]-7-methoxy-1-methyl-1H-1,3-benzodiazol-2-yl}-1-(cyclopropylmethyl)-1H-indol-7-yl)pyrrolidine-1-carboxylate]
56 nM	COc1cc(C(=O)N2C[C@H]3CC[C@@H]2[C@@H]3N)cc2nc(-c3cc4cccc(CCn5cncn5)c4n3CC3CC3)n(C)c12 [Example 29, (1R,4R,7R)-2-{2-[1-(cyclopropylmethyl)-7-[2-(1H-1,2,4-triazol-1-yl)ethyl]-1H-indol-2-yl]-7-methoxy-1-methyl-1H-1,3-benzodiazole-5-carbonyl}-2-azabicyclo[2.2.1]heptan-7-amine]
80 nM	COc1cc(C(=O)N2C[C@H]3CC[C@@H]2[C@@H]3N)cc2nc(-c3cc4cccc(C5CCS(=O)(=O)C5)c4n3CC3CC3)n(C)c12 (stereo partly drawn) [Example 30, ((1R,4R,7R)-7-amino-2-azabicyclo[2.2.1]heptan-2-yl)(2-(1-(cyclopropylmethyl)-7-(1,1-dioxidotetrahydrothiophen-3-yl)-1H-indol-2-yl)-7-methoxy-1-methyl-1H-benzo[d]imidazol-5-yl)methanone]
198 nM	COc1cc(C(=O)N2C[C@H]3CC[C@@H]2[C@@H]3N)cc2nc(-c3cc4cccc(CC5CCOCC5)c4n3CC3CC3)n(C)c12 [Example 31, (1R,4R,7R)-2-{2-[1-(cyclopropylmethyl)-7-[(oxan-4-yl)methyl]-1H-indol-2-yl]-7-methoxy-1-methyl-1H-1,3-benzodiazole-5-carbonyl}-2-azabicyclo[2.2.1]heptan-7-amine]
32 nM	COc1cc(C(=O)N2C[C@H]3CC[C@@H]2[C@@H]3N)cc2nc(-c3cc4cccc(CCC5CCCNC5)c4n3CC3CC3)n(C)c12 (stereo partly drawn) [Example 32, (1R,4R,7R)-2-{2-[1-(cyclopropylmethyl)-7-[2-(piperidin-3-yl)ethyl]-1H-indol-2-yl]-7-methoxy-1-methyl-1H-1,3-benzodiazole-5-carbonyl}-2-azabicyclo[2.2.1]heptan-7-amine]
129 nM	COc1cc(C(=O)N2C[C@H]3CC[C@@H]2[C@@H]3N)cc2nc(-c3cc4cccc(CCc5c(C)n[nH]c5C)c4n3CC3CC3)n(C)c12 [Example 33, (1R,4R,7R)-2-{2-[1-(cyclopropylmethyl)-7-[2-(3,5-dimethyl-1H-pyrazol-4-yl)ethyl]-1H-indol-2-yl]-7-methoxy-1-methyl-1H-1,3-benzodiazole-5-carbonyl}-2-azabicyclo[2.2.1]heptan-7-amine]
94 nM	COc1cc(C(=O)N2C[C@H]3CC[C@@H]2[C@@H]3N)cc2nc(-c3cc4cccc(C5CCCOC5)c4n3CC3CC3)n(C)c12 (stereo partly drawn) [Example 34, (1R,4R,7R)-2-{2-[1-(cyclopropylmethyl)-7-(oxan-3-yl)-1H-indol-2-yl]-7-methoxy-1-methyl-1H-1,3-benzodiazole-5-carbonyl}-2-azabicyclo[2.2.1]heptan-7-amine]
